Patent publication US20210063414A1, “METHODS FOR PREVENTING AND/OR TREATING BONE LOSS CONDITIONS BY MODULATING IRISIN” (Dana-Farber Cancer Institute, Inc., priority 2018, published 2021)

Tested on: sclerostin mRNA in MLO-Y4 cells
Test: Sclerostin mRNA in MLO-Y4 cells, qRT-PCR
Type: cell-based, mouse
Settings: MLO-Y4, inhibitor pre-treatment 10 minutes, irisin 16 hours
Method: Cells were stained with Hoechst 33342 and Eth-D1, and analyzed to determine the percentage of cell death. *: p<0.05, ***: p<0.001 vs 0.3 mM H2O2 treated condition. […] MLO-Y4 cells were seeded and incubated until 60% cell density. The cells were incubated with Freestyle293 medium for 4 hours and were treated with indicated concentrations of irisin for 16 hours. Sclerostin mRNA level was analyzed by qRT-PCR. Cyclophilin was used as a control house-keeping gene.
MLO-Y4 cells were incubated in serum free medium for 3 hours followed by treatment of indicated concentrations of irisin for indicated time (FIG. 6A), or followed by treatment of 0 or 10 nM irisin in the presence of indicated integrin inhibitors or their control peptide for 16 hours (FIG. 6B). Sclerostin mRNA level was analyzed by qPCR.
Certain materials and methods were used to generate the results described herein. For example, the data shown in FIG. 1A resulted from MLO-Y4 (an osteocyte-like cell line) cells treated with the indicated concentration of irisin and hydrogen peroxide for 4 hours. Cells were stained with Hoechst 33342 (ThermoFisher Scientific, catalog number H3570) and Eth-D1 (ThermoFisher Scientific, catalog number E1169) and analyzed to determine the percentage of cell death using ImageJ. The data shown in FIG. 2D resulted from MLO-Y4 incubated in serum free medium (FreeStyle™ 293 expression medium, ThermoFisher Scientific, catalog number 12338018) for 4 hours followed by treatment of indicated concentrations of irisin for 10 minutes. Cells were lysed to detect the indicated protein level using immunoblot analysis (Cell Signaling Technology, catalog numbers 3283S, 3285S, 8467S, 3553S, 9198S, and 9104S; Abcam, catalog number ab49900-100ul). The data shown in FIG. 3 resulted from 3T3-F442A cells incubated in serum free medium for 4 hours followed by treatment of indicated concentrations of irisin for 10 minutes. Cells were lysed by RIPA buffer to detect the indicated protein level using immunoblot analysis. The data shown in FIG. 4 were generated from 100 nM flag-tagged irisin (Enzo life sciences, catalog number ADI-908-307-3010) incubated with 5 nM of the indicated 6 his-tag integrins (R & D Systems Inc., catalog numbers 7064-AB-025, 5668-A4-050, 5438-A9-050, 6357-AB-050, and 6579-AV-025) in the presence of RGDS peptide (R & D Systems Inc., catalog number 3498/10) or its control peptide (Enzo Life Sciences, catalog Number BML-P701-0005) followed by immunoprecipitation using 6 his-tag beads (ThermoFisher Scientific, catalog number R901-01). Co-precipitated irisin was analyzed by immunoblot analysis against flag tag (Sigma Aldrich, catalog number A8592). The data shown in FIGS. 5A and 5B were generated from MLO-Y4 cells treated and analyzed as in the experiments used to generate the data shown in FIG. 2D, except that pre-treatment of 100 nM RGDS (FIG. 5A) or echistatin (R & D Systems Inc., catalog number 3202/100U) (FIG. 5B) for 10 minutes was performed before irisin treatment. The data shown in FIGS. 6A and 6B were generated from MLO-Y4 cells incubated in serum free medium for 3 hours followed by treatment of indicated time of 10 nM irisin for 16 hours. RNAs were extracted from the cells and the sclerostin mRNA level was analyzed by qPCR (FIG. 6A) or treated and analyzed as in (FIG. 6A), except that pre-treatment of 10 μM RGDS, RGDyK (Selleck, catalog number S7844), or echistatin was performed for 10 minutes before irisin treatment. […] Sclerostin mRNA level was analyzed by qPCR (FIG. 7A). […]

Molecule | effect of integrin inhibitor on irisin-induced sclerostin mRNA | effect of integrin inhibitor on irisin-induced sclerostin mRNA (listed as RGDyK circular peptide) | effect of integrin inhibitor on irisin-induced sclerostin mRNA (listed as RGD peptide)
N=C(N)NCCC[C@@H]1NC(=O)[C@H](CCCCN)NC(=O)[C@@H](Cc2ccc(O)cc2)NC(=O)[C@H](CC(=O)O)NC(=O)CNC1=O [cyclo RGDyK] | prevented sclerostin induction | sensitive | –
RGDS peptide: classical integrin competitive inhibitory peptide, commercially available form of the RGD peptide | sensitive | – | prevented sclerostin induction
